Assay [1] has as its target T1, LXRα full length (FL) (Homo sapiens, UniProt Q13133).
T1 construct: the full length (FL) proteins of LXRα (amino acids 1-447); NP005684; expressed in transfected cells; host or cells: HEK293
T1 sequence (Q13133 1-447): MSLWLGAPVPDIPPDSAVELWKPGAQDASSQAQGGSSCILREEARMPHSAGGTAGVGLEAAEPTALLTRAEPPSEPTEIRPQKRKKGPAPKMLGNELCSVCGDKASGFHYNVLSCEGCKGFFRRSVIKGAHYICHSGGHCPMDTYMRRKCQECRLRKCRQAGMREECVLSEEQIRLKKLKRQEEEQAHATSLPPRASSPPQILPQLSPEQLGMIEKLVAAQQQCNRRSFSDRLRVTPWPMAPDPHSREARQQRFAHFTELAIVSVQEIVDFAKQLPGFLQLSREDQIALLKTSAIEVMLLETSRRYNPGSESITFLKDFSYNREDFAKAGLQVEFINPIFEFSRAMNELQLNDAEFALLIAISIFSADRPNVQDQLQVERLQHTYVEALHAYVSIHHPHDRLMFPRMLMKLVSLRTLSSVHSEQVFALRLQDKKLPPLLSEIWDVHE
The assay can be described thus: LXR Gal4 reporter transient transfection assay, mammalian two-hybrid, FL-M2H Gal4α. In kind it is cell-based. Particulars: HEK293 cells; inverse agonist unless *. A digest of the protocol:
(§1)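 HEK293 cells transiently cotransfected with NFkB-AD fusions of full-length or LBD LXRα/β, GAL4-DBD fusions of SRC1 coactivator or NCoR corepressor domains, GAL4-driven firefly luciferase and Renilla control. Compound added 4 h post-transfection (≤0.2% DMSO), 16 h incubation; firefly and Renilla luminescence read sequentially.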

Assay [2] has as its target T2, GST-LXRβ ligand-binding domain (Homo sapiens, UniProt P55055, INS174Q).
T2 construct: amino acids 156-461; NP009052; made in house; host or cells: E. coli
T2 sequence (P55055 with tags, fused parts or gaps INS174Q limits assumed): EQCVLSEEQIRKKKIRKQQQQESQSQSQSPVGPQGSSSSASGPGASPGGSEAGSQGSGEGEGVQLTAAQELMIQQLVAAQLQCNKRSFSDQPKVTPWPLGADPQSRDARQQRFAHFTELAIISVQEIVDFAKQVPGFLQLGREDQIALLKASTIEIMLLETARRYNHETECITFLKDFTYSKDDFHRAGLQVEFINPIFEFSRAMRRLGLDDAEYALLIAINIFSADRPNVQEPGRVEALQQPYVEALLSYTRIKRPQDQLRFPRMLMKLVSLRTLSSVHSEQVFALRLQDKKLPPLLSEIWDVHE
The assay is described as follows: TR-FRETβ activity assay (NCoA3 coactivator peptide recruitment). In kind it is biochemical. Particulars: 1 μM 24(S)-25-epoxycholesterol as prestimulating agonist; inverse agonist unless *. The method in brief: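 E. coli-expressed GST-LXRβ LBD (aa 156-461, 76 nM) with biotinylated NCoA3 peptide (400 nM), anti-GST-Tb cryptate donor and streptavidin-XL665 acceptor in 240 mM KCl, BSA, 0.002% Triton X-100. Equilibrated 1 h at 4° C; TR-FRET read at 615/665 nm, triplicates.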

Assay [3] addresses T3, LXRβ full length (FL) (Homo sapiens, UniProt P55055, INS174Q).
T3 construct: the full length (FL) proteins of LXRα (amino acids 1-447); NP005684; NP009052; expressed in transfected cells; host or cells: HEK293
T3 sequence (P55055 with tags, fused parts or gaps INS174Q): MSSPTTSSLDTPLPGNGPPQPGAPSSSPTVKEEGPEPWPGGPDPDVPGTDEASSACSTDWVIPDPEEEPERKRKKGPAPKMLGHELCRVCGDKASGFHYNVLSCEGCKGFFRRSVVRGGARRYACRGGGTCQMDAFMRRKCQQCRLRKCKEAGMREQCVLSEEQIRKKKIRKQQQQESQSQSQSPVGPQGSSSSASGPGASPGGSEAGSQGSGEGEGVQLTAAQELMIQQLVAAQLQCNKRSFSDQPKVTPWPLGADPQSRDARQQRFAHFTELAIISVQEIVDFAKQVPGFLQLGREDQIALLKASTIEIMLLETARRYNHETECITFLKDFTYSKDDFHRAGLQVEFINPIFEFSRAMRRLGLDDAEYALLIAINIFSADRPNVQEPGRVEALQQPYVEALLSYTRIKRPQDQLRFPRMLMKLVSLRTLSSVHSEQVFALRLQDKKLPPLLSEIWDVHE
The assay is described as follows: LXR Gal4 reporter transient transfection assay, mammalian two-hybrid, FL-M2H Gal4β. In kind it is cell-based. Particulars: HEK293 cells; inverse agonist unless *. The method in brief: as §1

Experimental findings from patent US20200131144A1, “AMINE OR (THIO)AMIDE CONTAINING LXR MODULATORS” (Phenex-FXR GmbH, priority 2017, published 2020) are described below.

By EC50 is commonly meant the concentration that produces a half-maximal response. A higher EC50 goes with lower potency in that assay.

On to `Cc1ccc2ccc(C#N)cc2c1CN(Cc1ccc(-c2cccc(C(C)(C)C(=O)O)c2)cc1)Cc1ccc(C(F)(F)F)o1` [27/27], for which the EC50 was below 100 nM in assay [1], 100 to 1000 nM in assay [2] and below 100 nM in assay [3].

Take `Cc1ccc2ccccc2c1C(=O)N(CCc1cccc(Br)c1)Cc1ccc(-c2cccc(C(C)(C)C(=O)O)c2)cc1` [27/30]: the EC50 is 100 to 1000 nM in assay [1], 1000 to 10000 nM in assay [2] and below 100 nM in assay [3].

Take `CC(C)(C(=O)O)c1cccc(-c2ccc(CN(Cc3ccc(C(F)(F)F)o3)C(=O)c3c4ccccc4nc4ccccc34)cc2)c1` [27/31]: the concentration for a half-maximal effect (EC50) in assay [1], in assay [2] and in assay [3] was below 100 nM each time.

As to `CCc1cc(C)c(CN(Cc2ccc(-c3cccc(C(C)(C)C(=O)O)c3)cc2)Cc2ccc(C(F)(F)F)o2)c(C)c1` [27/32], the EC50 in assay [1], in assay [2] and in assay [3] was below 100 nM each time.

Consider `Cc1cc(C)c(CN(Cc2ccc(-c3cccc(C(C)(C)C(=O)O)c3)cc2)Cc2ccc(C(F)(F)F)o2)c2c1CCC2` [27/33], for which the EC50 in assay [1] was below 100 nM; in assay [2], 100 to 1000 nM; in assay [3], below 100 nM.

In the case of `Cc1cc(C)c(CN(Cc2ccc(-c3cccc(S(=O)(=O)CC(=O)O)c3)cc2)Cc2ccc(C(F)(F)F)o2)c(C)c1C` [27/34], the EC50 in assay [1] lay in the range of 1000 to 10000 nM; in assay [2], 1000 to 10000 nM; in assay [3], 100 to 1000 nM.

With `CCc1cc(C)cc(C)c1CN(Cc1ccc(-c2cccc(S(=O)(=O)CC(=O)O)c2)cc1)Cc1ccc(C(F)(F)F)o1` [27/35], the EC50 in assay [1] fell in the range of 1000 to 10000 nM; in assay [2], 1000 to 10000 nM; in assay [3], 100 to 1000 nM.

`Cc1ccc2ccccc2c1C(=O)N(Cc1ccc(-c2cncc(C(C)(C)C(=O)O)c2)cc1)Cc1ccc(C(F)(F)F)o1` [27/37]: the values for the EC50 in assay [1], in assay [2] and in assay [3] were 100 to 1000 nM, 100 to 1000 nM and below 100 nM, respectively.

`CC(C)(C(=O)O)c1cccc(-c2ccc(CN(Cc3ccc(C(F)(F)F)o3)C(C)(C)c3cccc4ccccc34)cc2)c1` [27/39]: the EC50 in assay [1] is 100 to 1000 nM; in assay [2], below 100 nM; in assay [3], below 100 nM.

For `O=C(O)CS(=O)(=O)c1cccc(-c2ccc(CN(Cc3ccc(C(F)(F)F)o3)C(=O)c3cccc4ccccc34)cc2)c1` [27/41], the EC50 in assay [1], in assay [2] and in assay [3] was 1000 to 10000 nM throughout.

Consider `O=C(O)CS(=O)(=O)c1cccc(-c2ccc(CN(Cc3ccc(C(F)(F)F)o3)C(=O)c3c(OC(F)F)ccc4ccccc34)cc2)c1` [27/42], for which the results for the EC50 in assay [1], in assay [2] and in assay [3] were 1000 to 10000 nM, 100 to 1000 nM and 100 to 1000 nM, respectively.

Regarding `Cc1ccc2c(F)cccc2c1CN(Cc1ccc(-c2cccc(C(C)(C)C(=O)O)c2)cc1)Cc1ccc(C(F)(F)F)o1` [27/44], the EC50 in assay [1] is below 100 nM; in assay [2], 100 to 1000 nM; in assay [3] it was below 100 nM.

As to `Cc1cc(C)c([N+](=O)[O-])c(C)c1C(=O)N(Cc1ccc(-c2cccc(C(C)(C)C(=O)O)c2)cc1)Cc1ccc(C(F)(F)F)o1` [27/46], the EC50 in assay [1], in assay [2] and in assay [3] was below 100 nM throughout.

Turning to `Cc1cc(Br)cc(C)c1C(=O)N(Cc1ccc(-c2cccc(C(C)(C)C(=O)O)c2)cc1)Cc1ccc(C(F)(F)F)o1` [27/48], the half-maximal effective concentration (EC50) is below 100 nM in assay [1], 100 to 1000 nM in assay [2] and below 100 nM in assay [3].

Turning to `Cc1cc(F)cc(C)c1C(=O)N(Cc1ccc(-c2cccc(C(C)(C)C(=O)O)c2)cc1)Cc1ccc(C(F)(F)F)o1` [27/49], the EC50 in assay [1] was below 100 nM; in assay [2] it was 100 to 1000 nM; in assay [3] it was below 100 nM.

`COCc1c(C)cc(C)c(C(=O)N(Cc2ccc(-c3cccc(C(C)(C)C(=O)O)c3)cc2)Cc2ccc(C(F)(F)F)o2)c1C` [27/50]: the EC50 was below 100 nM in assay [1], 100 to 1000 nM in assay [2] and below 100 nM in assay [3].

As to `CC12CC3(C)CC(C)(C1)CC(C(=O)N(Cc1ccc(-c4cccc(C(C)(C)C(=O)O)c4)cc1)Cc1ccc(C(F)(F)F)o1)(C2)C3` [27/51], the EC50 in assay [1] and in assay [3] was 100 to 1000 nM each time. Also, the FRETβ entry in assay [2] is “B*”.

Turning to `CCc1ccc2ccccc2c1CN(Cc1ccc(-c2cccc(C(C)(C)C(=O)O)c2)cc1)Cc1ccc(C(F)(F)F)o1` [27/52], the EC50 in assay [1] was below 100 nM; in assay [2] it was 100 to 1000 nM; in assay [3] it was below 100 nM.

Regarding `Cc1ccc2ccc(F)cc2c1C(=O)N(Cc1ccc(-c2cccc(C(C)(C)C(=O)O)c2)cc1)Cc1ccc(C(F)(F)F)o1` [27/53], the EC50 in assay [1], in assay [2] and in assay [3] was below 100 nM throughout.

On to `Cc1ccc2nc(C)c(C)c(C(=O)N(Cc3ccc(-c4cccc(C(C)(C)C(=O)O)c4)cc3)Cc3ccc(C(F)(F)F)o3)c2c1` [27/54], for which the EC50 was below 100 nM in assay [1], 100 to 1000 nM in assay [2] and below 100 nM in assay [3].

As to `CC(C)(C(=O)O)c1cccc(-c2ccc(CN(Cc3ccc(C(F)(F)F)o3)C(=O)c3c4c(nc5ccccc35)CCCC4)cc2)c1` [27/55], the concentration giving a half-maximal response (EC50) in assay [1] was below 100 nM; in assay [2] it was 100 to 1000 nM; in assay [3] it was below 100 nM.

For `Cc1ccc2ccccc2c1C(=O)N(Cc1ccc(C(F)(F)F)o1)Cc1ccc(-c2cncc(S(=O)(=O)CC(=O)O)c2)cc1Cl` [27/58], the values for the EC50 in assay [1], in assay [2] and in assay [3] were 100 to 1000 nM, 1000 to 10000 nM and 100 to 1000 nM, respectively.

As for `Cc1ccc2ccccc2c1C(=O)N(Cc1ccc(C(F)(F)F)o1)Cc1ccc(-c2cccc(S(=O)(=O)CC(=O)O)c2)cc1Cl` [27/59], the EC50 in assay [1], in assay [2] and in assay [3] was 100 to 1000 nM in each case.

As to `COc1cc(-c2cncc(S(=O)(=O)CC(=O)O)c2)ccc1CN(Cc1ccc(C(F)(F)F)o1)C(=O)c1c(C)ccc2ccccc12` [27/60], the EC50 lay in the range of 100 to 1000 nM in assay [1], 1000 to 10000 nM in assay [2] and 100 to 1000 nM in assay [3].

With `COc1cc(-c2cccc(S(=O)(=O)CC(=O)O)c2)ccc1CN(Cc1ccc(C(F)(F)F)o1)C(=O)c1c(C)ccc2ccccc12` [27/61], the values for the EC50 in assay [1], in assay [2] and in assay [3] were 100 to 1000 nM, 1000 to 10000 nM and 100 to 1000 nM, respectively.

As for `Cc1ccc2ccccc2c1C(=O)N(Cc1ccc(C(F)(F)F)o1)Cc1ccc(-c2cncc(S(=O)(=O)CC(=O)O)c2)cc1C(F)(F)F` [27/62], the half-maximal effective concentration (EC50) in assay [1] lay in the range of 1000 to 10000 nM; in assay [2], 1000 to 10000 nM; in assay [3] it was 100 to 1000 nM.

For the molecule `Cc1ccc2ccccc2c1C(=O)N(Cc1ccc(C(F)(F)F)o1)Cc1ccc(-c2cncc(C(C)(C)C(=O)O)c2)cc1OC(F)F` [27/64], the EC50 in assay [1] was 100 to 1000 nM; in assay [2], 100 to 1000 nM; in assay [3], below 100 nM.

`CCc1cc(-c2cncc(C(C)(C)C(=O)O)c2)ccc1CN(Cc1ccc(C(F)(F)F)o1)C(=O)c1c(C)ccc2ccccc12` [27/65]: the values for the EC50 in assay [1], in assay [2] and in assay [3] were below 100 nM, 100 to 1000 nM and below 100 nM, respectively.

Consider `COCc1c(C)cc(C)c(CN(Cc2ccc(-c3cccc(C(C)(C)C(=O)O)c3)cc2)Cc2ccc(C(F)(F)F)o2)c1C` [27/71], for which the EC50 is below 100 nM in assay [1], 100 to 1000 nM in assay [2] and below 100 nM in assay [3].

With `Cc1ccc2ccccc2c1CN(Cc1ccc(-c2cccc([C@H](C)C(=O)O)c2)cc1)Cc1ccc(C(F)(F)F)o1` [27/73], the EC50 was below 100 nM in assay [1], 100 to 1000 nM in assay [2] and below 100 nM in assay [3].
